The values that follow come from the OligoGym collection.

Values joined by “and” are separate entries in the source; they are usually repeats but may differ in a detail not shown here. Equal values may be shown once. After the bases stand the sugars from the 5' end (letter, count) and the backbone: PS all phosphorothioate, else s phosphorothioate and o phosphodiester by linkage. Methylation of C is not given here. e = 2'-O-(2-methoxyethyl) (MOE); k = constrained ethyl (cEt); d = 2'-deoxy (DNA)

One data set addresses APOL1. The conditions noted are these: ASO.
For the next data set, the target named is SOD1. To be noted: ASO.

In the data set with APOL1 (A431, 2 µM), “TTCTCATGGTACAGGA (sugars k2 d4 e4 k2 d4, PS)” showed a target mRNA inhibition of 80%.
Same read-out and setting: to “GGAATTATGGAATTGC (sugars kkddddkdkdkddddd, PS)” belongs 89%.
With “GCTTTAAACTCAGGTG (sugars kkdddddkekeddddd, PS)”, the target mRNA inhibition came out at 6% with APOL1 (A431, 0.0156 µM); 35% in the data set with APOL1 (A431, 0.0625 µM); 67% with APOL1 (A431, 0.25 µM); 85% with APOL1 (A431, 1 µM); 91% with APOL1 (A431, 2 µM).
For CAGCATTGAGTACAAC (sugars k3 d10 k3, PS), the target mRNA inhibition in the data set with APOL1 (A431, 0.0625 µM) was determined as 38%; with APOL1 (A431, 0.25 µM), 58%; in the data set with APOL1 (A431, 1 µM), 84%.
“CGTGTTATATTTGATC (sugars k2 d4 e3 k2 d5, PS)”: the target mRNA inhibition in the data set with APOL1 (A431, 2 µM) was found to be 74%.
Regarding GTTCTAACTCTTGGGC (sugars k4 d9 k3, PS), the target mRNA inhibition amounted to 74% in the data set with APOL1 (A431, 0.0625 µM); 85% in the data set with APOL1 (A431, 0.25 µM); 92% with APOL1 (A431, 1 µM).
The like results for TTGGTTCAAAAGCAGC (sugars k4 d9 k3, PS) were, in that order, 72%, 87% and 92%.
Turning to “ACGCAATGCTGACTTG (sugars k3 d4 k3 e1 d5, PS)”, the target mRNA inhibition with APOL1 (A431, 2 µM) is 88%.
Regarding “GCTAATTTTCTGACTG (sugars kkddddkdkdkddddd, PS)”, the target mRNA inhibition with APOL1 (A431, 0.0156 µM) is 10%; in the data set with APOL1 (A431, 0.0625 µM), 40%; with APOL1 (A431, 0.25 µM) it was 71%; in the data set with APOL1 (A431, 1 µM), 87%; with APOL1 (A431, 2 µM) it was 93%.
Regarding “GGCAGTTTTGTAAGTG (sugars kkddddekekeddddd, PS)”, in the data set with APOL1 (A431, 2 µM), the target mRNA inhibition is 75%.
Regarding “CCAAGGGAATGTTTATT (sugars e3 k2 d7 k2 e3, PS)”, in the data set with SOD1 (HepG2, 3 µM), the target mRNA inhibition came out at 36%.
On the same count and under the same terms, to “ACCTGCACTGGTACAGC (sugars e3 k2 d7 k2 e3, PS)” belongs 12%.
The sequence “ATACAGGGTTTTTATTC (sugars e3 k2 d7 k2 e3, PS)” displayed a target mRNA inhibition with SOD1 (HepG2, 3 µM) of 3%.
“TGCCCTGCACTGGGCCGTCG (sugars e5 d10 e5, PS)”: the target mRNA inhibition in the data set with SOD1 (HepG2, 4 µM) turned out to be 38%.
On to “CAGGATAACAGATGAGT (sugars e2 k2 d8 k2 e3, PS)”, for which the target mRNA inhibition with SOD1 (HepG2, 0.1875 µM) came to 62%; with SOD1 (HepG2, 0.75 µM), 89%; with SOD1 (HepG2, 3 µM), 95%; in the data set with SOD1 (HepG2, 4 µM), 95%; in the data set with SOD1 (HepG2, 12 µM), 95%.
For the sequence “GATACATTTCTACAGC (sugars ekddddddddekekee, linkages s1 o1 s8 o3 s2)”, the target mRNA inhibition came out at 0% in the data set with SOD1 (A431, 0.12 µM); 0% with SOD1 (A431, 0.6 µM); 0% in the data set with SOD1 (A431, 3 µM); 18% with SOD1 (A431, 15 µM); 40% in the data set with SOD1 (HepG2, 0.222 µM); 60% with SOD1 (HepG2, 0.667 µM). Also, the target mRNA inhibition with SOD1 (HepG2, 2 µM) is 80%; with SOD1 (HepG2, 6 µM), 93%.
Take “CTTCTGCTCGAAATTGA (sugars e3 k2 d7 k2 e3, PS)”: the target mRNA inhibition with SOD1 (HepG2, 3 µM) stood at 13%.
In the data set with SOD1 (HepG2, 4 µM), “GGATAACAGATGAGTTA (sugars e2 k2 d9 k2 e2, PS)” displayed a target mRNA inhibition of 63%.
Sequence “ATTTAAGTCTGGCAAAATAC (sugars e5 d10 e5, PS)” returned a target mRNA inhibition with SOD1 (HepG2, 5 µM) of 16%.
On the same count and under the same terms, to “GCCATACAGGGTTTTTA (sugars e2 k2 d8 k2 e3, PS)” belongs 13%; to “AGTGCCATACAGGGTTT (sugars e2 k2 d9 k2 e2, PS)”, 27%.
“CAAAATACAGGTCATTG (sugars e2 k2 d8 k2 e3, PS)” registered a target mRNA inhibition with SOD1 (HepG2, 5 µM) of 44%.
Same read-out and setting: to “ATAATAAGTGCCATACA (sugars e2 k2 d8 k2 e3, PS)” belongs 27%.
The same measure, in the same setting: to “CCCATCTGTGATTTAAGTCT (sugars e5 d10 e5, PS)” belongs 41%; to “AAGTCACACAATTACAC (sugars e2 k2 d8 k2 e3, PS)”, 41%; to “ATCAGTTTCTCACTACA (sugars e2 k2 d8 k2 e3, PS)”, 31%.
The same measure, in the same setting: to “TCATAATAAGTGCCATA (sugars e2 k2 d9 k2 e2, PS)” belongs 34%.
Regarding “CACGCCGAGGTCCTGGTTCC (sugars e5 d10 e5, PS)”, the target mRNA inhibition with SOD1 (HepG2, 4 µM) amounted to 23%.
Take “TTACACCACAAGCCAAACGA (sugars e5 d10 e5, PS)”: the target mRNA inhibition with SOD1 (HepG2, 5 µM) came out at 24%.
Same read-out and setting: to “TCACTACAGGTACTTTA (sugars e2 k2 d9 k2 e2, PS)” belongs 35%; to “TCTTCCAAGTGATCATAAAT (sugars e5 d10 e5, PS)”, 12%.
In the case of “CGATCCCAATTACACCA (sugars e2 k2 d9 k2 e2, PS)”, in the data set with SOD1 (HepG2, 4 µM), the target mRNA inhibition came to 59%.
As for “ATACATTTCTACAGCTA (sugars e3 k2 d7 k2 e3, PS)”, the target mRNA inhibition is 34% with SOD1 (HepG2, 0.1875 µM); 56% in the data set with SOD1 (HepG2, 0.75 µM); 57% and 82% with SOD1 (HepG2, 3 µM); 93% in the data set with SOD1 (HepG2, 12 µM).
In the data set with SOD1 (HepG2, 5 µM), “TAGCCTCATAATAAGTG (sugars e2 k2 d9 k2 e2, PS)” gave a target mRNA inhibition of 27%.
